Results reported in patent publication US20230165772A1, “STABILIZED COSMETIC COMPOSITIONS WITH N, N'-DI-ACETYL CYSTINE” (Conopco, Inc., d/b/a UNILEVER, priority 2020, published 2023).
“Also recorded” adds a separate entry of the source.

Key:
[1] = HPLC quantitation of 4-hexylresorcinol (HR) remaining after storage; assay type: physicochemical
Description: The amount of 4-hexylresorcinol (HR) or 4-ethylresorcinol (ER) present in each of the samples used for the color measurements was quantitated after 2 weeks @ R.T. (˜20-22° C.) by high performance liquid chromatography (HPLC). A sample aliquot (100 uL) from each of the color measurement solutions was diluted with DI water:acetonitrile (1:1, 900 uL) to generate test samples (1 ml). An aliquot (10 uL) from each test sample was injected into a Waters 2695 Separations Module, chromatographed and separated on a Restek Pinnacle DB C18 (5 μm, 4.6×150 mm) column operated at 30° C. and the 4-alkylresorcinols monitored using a Waters 2996 Photodiode Array Detector set @ 281 nm. […] Standard control samples of HR at 1×, 5×higher and 5×lower concentrations were prepared fresh and immediately analysed; standard curves were generated within the test sample range and linearity was confirmed.
All samples were analyzed in duplicate and the mean value reported. The amount of 4-alkylresorcinol present for each test sample after 2 weeks was determined by measuring the chromatographic peak area under the curve @ 281 nm for HR and expressed as the percent ratio over the corresponding chromatographic peak area under the curve @ 281 nm for the freshly prepared control sample.

[2] = Color of 4-alkylresorcinol solutions after storage (visual appearance and L*a*b*, Labscan XE); assay type: physicochemical
Description: (§1) Samples were prepared by dissolving 4-hexylresorcinol (HR) (200 mg) or 4-ethylresorcinol (ER) (200 mg) in DI water:butylene glycol (4:1; 20 ml) to generate a clear colorless homogeneous solution. A portion of each solution (5 ml) was added to a 20 ml scintilation vial containing either niacinamide (B3) (50 mg), NDAC (N,N′-diacetyl-L-cystine) (50 mg), NACys (N-acetyl-L-cysteine) (50 mg), B3 (50 mg)+NDAC (50 mg) or B3 (50 mg)+NACys (50 mg). A hydrogen sulfide (H2S) test strip (Sigma) was placed above the sample solution and the samples sealed. Odor and H2S generation (unchanged test strip white color=no H2S generated; changed test strip brown/black color=H2S generated) were monitored for 2 weeks at R.T. (about 20 to about 22° C.).
After 2 weeks of storage at R.T. (about 20 to about 22° C.), the color of each solution was assessed visually. Additionally, L*a*b* measurements determined experimentally using a Labscan XE instrument (Hunter Associates Labs Inc., Reston, Va.) and processed with Universal Software (version 4.10). The L* parameter measures darkness and lightness and ranges from black (L*=0) to white (L*=100). The a* parameter measures color content and intensity ranging from green (a*<0) to neutral grey (a*=0) to red (a*>0). The b* parameter also measures color content and intensity ranging from blue (b*<0) to neutral grey (b*=0) to yellow (b*>0).

[3] = Odor and H2S generation of 4-alkylresorcinol solutions during storage; assay type: physicochemical; conditions: as stabilizer of 4-substituted resorcinols
Description: as §1

[4] = biologically acceptable vehicle, neutral pH range; cited from earlier work
[5] = freshly prepared solution of HR

Structure (SMILES): CCCCCCc1ccc(O)cc1O [HR, 4-hexylresorcinol]
- decomposition of HR upon HPLC analysis [1, 5]: no decomposition
- color of freshly prepared solution [2, 5]: colorless

Structure (SMILES): CC(=O)N[C@@H](CS)C(=O)O [NACys, N-acetyl-L-cysteine]
- stabilizing resorcinol derivatives (in words) [1]: effective
- sulfurous odor generation by the stabilizer (in words) [3]: generates sulforous odor; also recorded: sulfurous odor generating; also recorded: upleasant sulfurous odor

Structure (SMILES): N[C@@H](CSSC[C@H](N)C(=O)O)C(=O)O [cystine]
- solubility [4]: extremely low

Structure (SMILES): CC(=O)N[C@@H](CSSC[C@H](NC(C)=O)C(=O)O)C(=O)O [NDAC, N,N′-diacetyl-L-Cystine]
- prevention of color formation / discoloration (in words) ([2]; after 2 weeks at R.T., in the presence or absence of B3): effective
- sulfurous odor generation by the stabilizer (in words) [3]: no sulfurous odor generation

Structure (SMILES): CCOC(=O)[C@@H](N)CSSC[C@H](N)C(=O)OCC [DEC, Cystine diethyl ester]
- sulfurous odor generation by the stabilizer (in words) [3]: sulfurous odor generating
